This is an account of results in ChEMBL document CHEMBL1201862, “PubChem BioAssay data set” (2004).

The structures appear in SMILES notation.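 All cell lines were grown in 96-well plates and treated with compound for 48 hours. GI50 marks 50% less growth.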 Activity calls are given as the source filed them. No stated cut-off is given here; in the data, active = GI50 up to about 1.1 µM and inactive = higher.

Among the test systems are 786-0; CAKI-1; EKVX; HCT-116; HOP-62; HT-29; Hs-578T; IGROV-1; LOX IMVI; M14; MCF7; MDA-N; NCI-H226; NCI-H522; OVCAR-4; OVCAR-5; OVCAR-8; RPMI-8226; SK-OV-3; HCC 2998.
Holding throughout (assay): DTP human tumour cell line panel, 48 h

On to `CN1CCN(c2ccc(-n3cc(C(=O)O)c(=O)c4cc(F)c(N5CCN(C)CC5)cc43)nc2)CC1`, for which the GI50 (in general, the concentration that inhibits growth by half) in the assay on 786-0 is 64.7 µM (inactive); in the assay on CAKI-1 it was > 100 µM (inactive); in the assay with EKVX, > 100 µM (inactive); in the assay on HCT-116, 69.3 µM (inactive); with HOP-62, > 100 µM (inactive); in the assay on HT-29 it was 65.5 µM (inactive). Besides, the GI50 in the assay with Hs-578T, with IGROV-1, in the assay on LOX IMVI, in the assay with M14, in the assay on MCF7 and in the assay with MDA-N was > 100 µM (inactive) in each case. Further, the GI50 in the assay on NCI-H226 is > 100 µM (inactive); in the assay on NCI-H522, 78.5 µM (inactive); in the assay on OVCAR-4, > 100 µM (inactive); in the assay on OVCAR-5, > 100 µM (inactive); in the assay with OVCAR-8, 85.1 µM (inactive); in the assay on RPMI-8226, > 100 µM (inactive). Further, the GI50 in the assay on SK-OV-3 was > 100 µM (inactive).

Turning to `O=[N+]([O-])c1ccc(/C=N/n2c(CO)nc3ccccc32)o1`, the GI50 with 786-0 was 4.04 µM (inactive); in the assay with CAKI-1 it was 9.68 µM (inactive); in the assay on EKVX, 11.3 µM (inactive); in the assay on HCT-116, 1.71 µM (inactive); in the assay with HOP-62, 11.9 µM (inactive); in the assay on HT-29 it was 2.8 µM (inactive). The GI50 in the assay on Hs-578T is 12.7 µM (inactive); with IGROV-1, 0.993 µM (active); in the assay on LOX IMVI, 2.92 µM (inactive); in the assay on M14, 4.17 µM (inactive); in the assay on MCF7, 2.96 µM (inactive); in the assay with MDA-N, 3.33 µM (inactive). Moreover, the GI50 in the assay on NCI-H226 was 15.1 µM (inactive); with NCI-H522 it was 2.28 µM (inactive); in the assay with OVCAR-4 it was 7.1 µM (inactive); in the assay with OVCAR-5, 11.9 µM (inactive); in the assay on OVCAR-8 it was 10.3 µM (inactive); in the assay on RPMI-8226, 3.43 µM (inactive). Also, the GI50 in the assay on SK-OV-3 was 18.2 µM (inactive).

For the compound `COc1ccc(C(=O)O[C@@H]2CCN3CC[C@H](C)[C@H]23)cc1`, the GI50 in the assay on 786-0, in the assay with CAKI-1, with EKVX, in the assay with HCT-116, in the assay on HOP-62 and in the assay on HT-29 was > 100 µM (inactive) in each case. Also, the GI50 in the assay on Hs-578T, with IGROV-1, with LOX IMVI, in the assay with M14, in the assay on MCF7 and in the assay with MDA-N was > 100 µM (inactive) throughout. For the same compound, the GI50 with NCI-H226, in the assay with NCI-H522, with OVCAR-5, in the assay with OVCAR-8, with RPMI-8226 and in the assay on SK-OV-3 was > 100 µM (inactive) in each case.

Take `O=C1C(c2c(O)[nH]c3ccc(I)cc23)=Nc2ccccc21`: the GI50 with 786-0 was 2.02 µM (inactive); with CAKI-1, 7.06 µM (inactive); in the assay on EKVX, 4.67 µM (inactive); in the assay on HCT-116 it was 1.67 µM (inactive); in the assay on HOP-62, 4.7 µM (inactive); in the assay on HT-29, 7.1 µM (inactive). The GI50 was 6.78 µM (inactive) in the assay on Hs-578T; 0.0873 µM (active) in the assay with IGROV-1; 4.88 µM (inactive) with LOX IMVI; 14 µM (inactive) in the assay on M14; 4.07 µM (inactive) in the assay with MCF7; 6.68 µM (inactive) in the assay on MDA-N. Further, the GI50 in the assay with NCI-H226 is 2.55 µM (inactive); in the assay on NCI-H522, 4.2 µM (inactive); in the assay with OVCAR-4 it was 4.06 µM (inactive); with OVCAR-5, 11.8 µM (inactive); with OVCAR-8, 2.15 µM (inactive); in the assay on RPMI-8226, 9.51 µM (inactive). Also, the GI50 with SK-OV-3 was 3.97 µM (inactive).

As to `CC(=O)Oc1ccc2cc(Oc3cc(Cl)c(Cl)cc3Cl)c(=O)oc2c1`, the GI50 in the assay with 786-0 is 15.6 µM (inactive); in the assay on CAKI-1, 18 µM (inactive); with EKVX, 24.4 µM (inactive); in the assay on HCC 2998, 17.1 µM (inactive); in the assay with HCT-116, 14.9 µM (inactive); in the assay on HOP-62, 17.3 µM (inactive). Besides, the GI50 in the assay with HT-29 is 16.8 µM (inactive); with Hs-578T, 22.2 µM (inactive); in the assay on IGROV-1 it was 11.2 µM (inactive); in the assay on LOX IMVI it was 15.4 µM (inactive); with M14 it was 18.2 µM (inactive); with MCF7 it was 24.2 µM (inactive). Also, the GI50 is 14.6 µM (inactive) in the assay with MDA-N; 16.9 µM (inactive) with NCI-H226; 16.7 µM (inactive) in the assay with NCI-H522; 34.5 µM (inactive) in the assay on OVCAR-4; 18.5 µM (inactive) in the assay with OVCAR-5; 17.1 µM (inactive) in the assay on OVCAR-8.

As for `Clc1ccccc1NN(Cc1ccccn1)c1ccccc1Cl`, the GI50 in the assay with 786-0 was 16.9 µM (inactive); with CAKI-1, 54.3 µM (inactive); with EKVX, 23 µM (inactive); in the assay with HCT-116 it was 14 µM (inactive); with HOP-62, 17.9 µM (inactive); with HT-29, 14.6 µM (inactive). The GI50 with Hs-578T was 26.2 µM (inactive); in the assay with IGROV-1 it was 20.2 µM (inactive); in the assay with LOX IMVI it was 18.6 µM (inactive); in the assay on M14, 18.5 µM (inactive); in the assay on MCF7, 36.1 µM (inactive); in the assay on MDA-N it was 17.2 µM (inactive). The GI50 in the assay with NCI-H226 was 16.2 µM (inactive); in the assay on NCI-H522 it was 17.6 µM (inactive); in the assay on OVCAR-4, 16.2 µM (inactive); in the assay on OVCAR-5, 20.9 µM (inactive); in the assay on OVCAR-8 it was 21.2 µM (inactive); in the assay on RPMI-8226 it was 16.1 µM (inactive). In addition, in the assay on SK-OV-3, the GI50 was 49.8 µM (inactive).

Consider `CN(C)CCNC(=O)c1cccc(C(=O)Nc2ccccc2)c1[N+](=O)[O-]`, for which the GI50 with 786-0 was > 100 µM (inactive); in the assay on CAKI-1 it was > 100 µM (inactive); with HCC 2998, > 100 µM (inactive); in the assay on HCT-116, > 100 µM (inactive); with HOP-62, > 100 µM (inactive); with HT-29, 71.8 µM (inactive). The GI50 with Hs-578T, in the assay with IGROV-1, in the assay on M14, with MCF7, in the assay with MDA-N and in the assay on NCI-H226 was > 100 µM (inactive) in each case. The GI50 in the assay with NCI-H522, in the assay with OVCAR-5, in the assay with OVCAR-8 and in the assay on SK-OV-3 was > 100 µM (inactive) in each case.

For the compound `O=C1/C(=C/c2cccc([N+](=O)[O-])c2)Cc2ccccc21`, the GI50 in the assay with 786-0 is > 100 µM (inactive); in the assay on CAKI-1 it was > 100 µM (inactive); with EKVX it was > 100 µM (inactive); in the assay with HCT-116, 39.7 µM (inactive); in the assay with HOP-62 it was > 100 µM (inactive); in the assay with HT-29, > 100 µM (inactive). The GI50 in the assay on Hs-578T, in the assay on IGROV-1, with LOX IMVI, with M14, with MCF7 and in the assay with MDA-N was > 100 µM (inactive) in each case. Further, the GI50 with NCI-H226 was > 100 µM (inactive); in the assay with NCI-H522, 59.3 µM (inactive); in the assay with OVCAR-4, 75 µM (inactive); in the assay on OVCAR-5, > 100 µM (inactive); in the assay with OVCAR-8 it was > 100 µM (inactive); in the assay with RPMI-8226 it was > 100 µM (inactive). Further, the GI50 with SK-OV-3 was > 100 µM (inactive).

With `C/C(=N\NC(=S)N1CCCCCCCCCCCC1)c1ccccn1`, the GI50 in the assay on 786-0 was 0.173 µM (active); with CAKI-1, 0.246 µM (active); in the assay on EKVX, 0.0514 µM (active); in the assay on HCC 2998, 0.385 µM (active); in the assay on HCT-116 it was 0.447 µM (active); in the assay on HOP-62, 0.132 µM (active). Also, the GI50 was 0.0356 µM (active) with HT-29; 0.24 µM (active) with Hs-578T; 0.212 µM (active) in the assay on IGROV-1; 0.135 µM (active) in the assay on LOX IMVI; 0.214 µM (active) in the assay on M14; 0.0865 µM (active) in the assay with MCF7. For the same compound, the GI50 with MDA-N was 0.126 µM (active); with NCI-H226, 0.199 µM (active); in the assay with NCI-H522, 0.0855 µM (active); in the assay with OVCAR-4, 0.0491 µM (active); in the assay on OVCAR-5 it was 0.971 µM (active); with OVCAR-8 it was 0.147 µM (active).

As to `c1ccc2c(-c3csc(-c4c[nH]c5ccccc45)n3)c[nH]c2c1`, the GI50 in the assay with 786-0 was > 65 µM (inactive); in the assay on CAKI-1, > 100 µM (inactive); in the assay with EKVX it was > 100 µM (inactive); in the assay with HCC 2998, > 100 µM (inactive); with HCT-116, > 48.8 µM (inactive); in the assay on HOP-62, 56.4 µM (inactive). Besides, the GI50 with HT-29 was 39.4 µM (inactive); in the assay with Hs-578T, 61.1 µM (inactive); in the assay with IGROV-1, > 28.5 µM (inactive); with LOX IMVI, 21.8 µM (inactive); in the assay with M14 it was > 100 µM (inactive); in the assay with MCF7, > 52.1 µM (inactive). Besides, the GI50 was 49 µM (inactive) in the assay on MDA-N; > 100 µM (inactive) in the assay with NCI-H226; > 100 µM (inactive) in the assay on OVCAR-4; > 51.9 µM (inactive) with OVCAR-5; > 100 µM (inactive) in the assay with OVCAR-8; > 44.8 µM (inactive) in the assay on SK-OV-3.

For `O=NC1c2cccc3cccc(c23)C1N=O` (stereo unspecified), the GI50 with 786-0 is 12.9 µM (inactive); with CAKI-1 it was 2.77 µM (inactive); with EKVX, 2.58 µM (inactive); in the assay with HCT-116, 1.34 µM (inactive); in the assay on HOP-62, 5.26 µM (inactive); in the assay on HT-29 it was 10.9 µM (inactive). Besides, the GI50 is 15.9 µM (inactive) in the assay on Hs-578T; 1.08 µM (active) in the assay on IGROV-1; 1.59 µM (inactive) in the assay with LOX IMVI; 12 µM (inactive) in the assay with M14; 7.93 µM (inactive) with MCF7; 3.84 µM (inactive) with MDA-N. For the same compound, the GI50 was 1.93 µM (inactive) in the assay with NCI-H522; 1.59 µM (inactive) with OVCAR-4; 2.83 µM (inactive) in the assay on OVCAR-5; 2.07 µM (inactive) in the assay on OVCAR-8; 8.17 µM (inactive) in the assay on RPMI-8226; 11 µM (inactive) in the assay with SK-OV-3.
